According to the supplement of paper PMC11061612:

How the values were obtained:
Test in all cases: combination Emax (second highest fraction inhibited in the dose matrix, 72 h); higher = more inhibition; extreme values may be limits of the assay
[1] = test system: SNU-1 (Gastric Carcinoma)
How it was run: (§1)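 Cell lines in DMEM/F12 or RPMI with 10% FBS were plated in 1536-well plates, held 24 hours at 37°C, 5% CO2, then given two-drug dose matrices for 72 hours (DMSO typically 0.2%). Viability was read by CellTiter-Glo 2.0 luminescence and scaled as inhibition from 0 (vehicle wells) to 1 (blank wells). Combination Emax is the second-highest inhibition in the matrix; Bliss excess is observed combination effect minus expected EA + EB − EA·EB, EA and EB being single-agent effects.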

SK-N-DZ (Neuroblastoma) = test system: SK-N-DZ (Neuroblastoma)
How it was run: as §1

[2] = test system: BT-474 (Breast Carcinoma)
How it was run: as §1

[3] = test system: COR-L105 (Lung Adenocarcinoma)
How it was run: as §1

[4] = test system: OVKATE (Ovarian Carcinoma)
How it was run: as §1

NCI-H2452 (Mesothelioma) = test system: NCI-H2452 (Mesothelioma)
How it was run: as §1

[5] = test system: SBC-5 (Small Cell Lung Carcinoma)
How it was run: as §1

[6] = test system: CAL-85-1 (Breast Carcinoma)
How it was run: as §1

[7] = test system: SCC90 (Head and Neck Carcinoma)
How it was run: as §1

[8] = test system: SW1463 (Colorectal Carcinoma)
How it was run: as §1

[9] = test system: GRANTA-519 (B-Cell Non-Hodgkin's Lymphoma)
How it was run: as §1

[10] = test system: SBC-3 (Small Cell Lung Carcinoma)
How it was run: as §1

[11] = test system: NCI-H2170 (Squamous Cell Lung Carcinoma)
How it was run: as §1

[12] = test system: KNS-62 (Squamous Cell Lung Carcinoma)
How it was run: as §1

MG-63 (Osteosarcoma) = test system: MG-63 (Osteosarcoma)
How it was run: as §1

A375 (Melanoma) = test system: A375 (Melanoma)
How it was run: as §1

[13] = test system: SUP-HD1 (Hodgkin's Lymphoma)
How it was run: as §1

HT-144 (Melanoma) = test system: HT-144 (Melanoma)
How it was run: as §1

[14] = test system: HT-1197 (Bladder Carcinoma)
How it was run: as §1

[15] = test system: NCI-H1648 (Lung Adenocarcinoma)
How it was run: as §1

| Compound | combination Emax [1] | combination Emax (SK-N-DZ (Neuroblastoma)) | combination Emax [2] | combination Emax [3] | combination Emax [4] | combination Emax (NCI-H2452 (Mesothelioma)) | combination Emax [5] | combination Emax [6] | combination Emax [7] | combination Emax [8] | combination Emax [9] | combination Emax [10] | combination Emax [11] | combination Emax [12] | combination Emax (MG-63 (Osteosarcoma)) | combination Emax (A375 (Melanoma)) | combination Emax [13] | combination Emax (HT-144 (Melanoma)) | combination Emax [14] | combination Emax [15] |
| --- | --- | --- | --- | --- | --- | --- | --- | --- | --- | --- | --- | --- | --- | --- | --- | --- | --- | --- | --- | --- |
| CN(C)CCCOc1ccc(-c2ccc3ncc4c(c3c2)n(C2CCOCC2)c(=O)n4C)cn1 [AZD0156] + O=C(c1cc(Cc2n[nH]c(=O)c3ccccc23)ccc1F)N1CCN(C(=O)C2CC2)CC1 [Olaparib] (first compound max 3 µM, partner max 3 µM) | 0.182 | 0.373 | 0.27 | 0.358 | 0.214 | 0.38 | 0.194 | 0.172 | 0.138 | 0.169 | 0.151 | 0.465 | 0.437 | 0.367 | 0.548 | 0.29 | 0.166 | 0.381 | 0.121 | 0.396 |
| COc1nnc2ccc(N3CCC(c4ccc(OCCN5CCN(C)C(=O)[C@H]5C)cc4)CC3)nn12 [AZD5153] + C[C@@H]1COCCN1C2=NC(=NC(=C2)C3(CC3)[S@](=N)(=O)C)C4=C5C=CNC5=NC=C4 [AZD6738] (first compound max 1 µM, 7x7, partner max 10 µM) | 0.823 | 0.979 | 0.483 | 0.477 | 0.324 | 0.574 | 0.83 | 0.734 | 0.416 | 0.555 | 0.906 | 0.784 | 0.788 | 0.625 | 0.757 | 0.774 | 0.823 | 0.713 | 0.724 | 0.821 |
| CN(CCO)CC[C@H](CSc1ccccc1)Nc1ccc(S(=O)(=O)NC(=O)c2ccc(N3CCC([C@@H](O)c4ccccc4-c4ccc(Cl)cc4)CC3)cc2)cc1S(=O)(=O)C(F)(F)F [AZD4320] + Cn1cnc2c(F)c(Nc3ccc(Br)cc3Cl)c(C(=O)NOCCO)cc21 [Selumetinib] (first compound max 1 µM, 7x7, partner max 3 µM) | 0.952 | 0.827 | 0.282 | 0.543 | 0.501 | 0.346 | 0.245 | 0.683 | 0.881 | 0.534 | 1 | 0.981 | 0.676 | 0.399 | 0.365 | 0.749 | 0.983 | 0.834 | 0.41 | 0.83 |
| Cn1cnc2c(F)c(Nc3ccc(Br)cc3Cl)c(C(=O)NOCCO)cc21 [Selumetinib] + CCN(CCO)CCCOc1ccc2c(Nc3cc(CC(=O)Nc4cccc(F)c4)[nH]n3)ncnc2c1 [AZD2811] (first compound max 10 µM, 7x7, partner max 1 µM) | 0.53 | 0.621 | 0.0839 | 0.387 | 0.176 | 0.249 | 0.366 | 0.483 | 0.827 | 0.678 | 0.439 | 0.482 | 0.64 | 0.495 | 0.32 | 0.718 | 0.453 | 0.786 | 0.223 | 0.593 |
| CC1(C)CCC(CN2CCN(c3ccc(C(=O)NS(=O)(=O)c4ccc(NCC5CCOCC5)c([N+](=O)[O-])c4)c(Oc4cnc5[nH]ccc5c4)c3)CC2)=C(c2ccc(Cl)cc2)C1 [Venetoclax] + CCN(CCO)CCCOc1ccc2c(Nc3cc(CC(=O)Nc4cccc(F)c4)[nH]n3)ncnc2c1 [AZD2811] (first compound max 1 µM, 7x7, partner max 1 µM) | 0.297 | 0.552 | 0.218 | 0.211 | 0.153 | 0.259 | 0.266 | 0.156 | 0.552 | 0.157 | 0.925 | 0.766 | 0.545 | 0.275 | 0.23 | 0.371 | 0.922 | 0.266 | 0.221 | 0.201 |
| NC1(C(=O)N[C@@H](CCO)c2ccc(Cl)cc2)CCN(c2ncnc3[nH]ccc23)CC1 [Capivasertib] + CC(C)n1c(=O)n(C)c2cnc3cc(F)c(-c4ccc(OCCCN5CCCCC5)nc4)cc3c21 [AZD1390] (first compound max 10 µM, 7x7, partner max 0.3 µM) | 0.229 | 0.218 | 0.299 | 0.362 | 0.247 | 0.399 | 0.281 | 0.266 | 0.825 | 0.237 | 0.196 | 0.374 | 0.54 | 0.547 | 0.813 | 0.228 | 0.473 | 0.606 | 0.391 | 0.585 |
| CN(CCO)CC[C@H](CSc1ccccc1)Nc1ccc(S(=O)(=O)NC(=O)c2ccc(N3CCC([C@@H](O)c4ccccc4-c4ccc(Cl)cc4)CC3)cc2)cc1S(=O)(=O)C(F)(F)F [AZD4320] + C=CCn1c(=O)c2cnc(Nc3ccc(N4CCN(C)CC4)cc3)nc2n1-c1cccc(C(C)(C)O)n1 [AZD1775] (first compound max 1 µM, partner max 1 µM) | 0.929 | 1 | 0.526 | 0.478 | 0.528 | 0.737 | 0.406 | 0.439 | 0.85 | 0.468 | 1 | 0.69 | 0.8 | 0.363 | 0.266 | 0.749 | 0.952 | 0.654 | 0.622 | 0.707 |
| C=CCn1c(=O)c2cnc(Nc3ccc(N4CCN(C)CC4)cc3)nc2n1-c1cccc(C(C)(C)O)n1 [AZD1775] + C[C@@H]1COCCN1C2=NC(=NC(=C2)C3(CC3)[S@](=N)(=O)C)C4=C5C=CNC5=NC=C4 [AZD6738] (first compound max 1 µM, partner max 10 µM) | 0.817 | 1 | 0.316 | 0.595 | 0.422 | 0.747 | 0.929 | 0.669 | 0.927 | 0.822 | 0.826 | 0.889 | – | 0.565 | 0.854 | 0.766 | 0.887 | 0.777 | 0.592 | 0.833 |
| C[C@@H]1COCCN1c1cc(C2([S@](C)(=N)=O)CC2)nc(-c2ccnc3[nH]ccc23)n1 [AZD6738] + O=C(c1cc(Cc2n[nH]c(=O)c3ccccc23)ccc1F)N1CCN(C(=O)C2CC2)CC1 [Olaparib] (first compound max 10 µM, 7x7, partner max 10 µM) | 0.777 | 0.915 | 0.218 | 0.581 | 0.305 | 0.469 | 0.789 | – | 0.48 | 0.951 | 0.754 | 0.699 | 0.71 | 0.413 | 0.674 | 0.66 | 0.725 | 0.859 | 0.393 | 0.689 |
| COc1nnc2ccc(N3CCC(c4ccc(OCCN5CCN(C)C(=O)[C@H]5C)cc4)CC3)nn12 [AZD5153] + CN(CC[C@H](CSC1=CC=CC=C1)NC2=C(C=C(C=C2)S(=O)(=O)NC(=O)C3=CC=C(C=C3)N4CCC(CC4)[C@H](C5=CC=CC=C5C6=CC=C(C=C6)Cl)O)S(=O)(=O)C(F)(F)F)CCO [AZD4320] (first compound max 1 µM, 7x7, partner max 1 µM) | 0.8 | 0.922 | 0.531 | – | – | – | 0.534 | – | 0.588 | – | 0.986 | – | 0.838 | – | – | 0.476 | 0.988 | 0.454 | 0.845 | – |
| CC(=O)c1c(C)c2cnc(Nc3ccc(N4CCNCC4)cn3)nc2n(C2CCCC2)c1=O [Palbociclib] + CN(CC[C@H](CSC1=CC=CC=C1)NC2=C(C=C(C=C2)S(=O)(=O)NC(=O)C3=CC=C(C=C3)N4CCC(CC4)[C@H](C5=CC=CC=C5C6=CC=C(C=C6)Cl)O)S(=O)(=O)C(F)(F)F)CCO [AZD4320] (first compound max 10 µM, 7x7, partner max 1 µM) | 0.831 | 0.992 | 0.124 | – | – | – | 0.251 | – | 0.862 | – | 0.903 | – | 0.8 | – | – | 0.373 | 0.946 | 0.753 | 0.338 | – |
| CCc1c2c(nc3ccc(O)cc13)-c1cc3c(c(=O)n1C2)COC(=O)[C@]3(O)CC [SN-38] + O=C(c1cc(Cc2n[nH]c(=O)c3ccccc23)ccc1F)N1CCN(C(=O)C2CC2)CC1 [Olaparib] (first compound max 0.3 µM, 7x7, partner max 10 µM) | 0.926 | – | – | 0.401 | 0.224 | 0.316 | – | 0.702 | 0.632 | 0.473 | – | 0.979 | 0.969 | 0.905 | 0.896 | 0.949 | 0.895 | – | 0.35 | 0.915 |
| Cc1c2c(nn1C)CSCc1cc(n(C)n1)CSc1cc(c3ccccc3c1)OCCCc1c(C(=O)O)n(C)c3c-2c(Cl)ccc13 [AZD5991] + CC1(C)CCC(CN2CCN(c3ccc(C(=O)NS(=O)(=O)c4ccc(NCC5CCOCC5)c([N+](=O)[O-])c4)c(Oc4cnc5[nH]ccc5c4)c3)CC2)=C(c2ccc(Cl)cc2)C1 [Venetoclax] (first compound max 1 µM, 7x7, partner max 1 µM) | 0.933 | 0.479 | 0.351 | 0.181 | 0.147 | 0.305 | 0.231 | 0.122 | 0.934 | 0.131 | 0.472 | 0.69 | 0.237 | – | 0.199 | 0.307 | 0.959 | 0.955 | 0.148 | 0.748 |
